{"source": "patent US4847286A", "about": "“Cromoglycic acid derivatives, method of production thereof and pharmaceutical composition” (priority 1985, dated 1989)", "key": {"[1]": {"test": "Acute toxicity test, oral route", "conditions": "mouse, in vivo, aqueous solution, groups of three ICR-strain male mice", "method": "The cromoglycic acid derivatives produced in Examples 1, 4, 7, 11 and 12 were administered, each in the form of an aqueous solution, to groups of three ICR-strain male mice by the oral route."}, "[2]": {"conditions": "rabbit, in vivo, po, 5 mg/kg, 360 min"}, "in vivo": {"test": "in vivo", "conditions": "rabbit, po, 5 mg/kg"}, "[3]": {"conditions": "background statement; cited from earlier work"}}, "note": "Where a name gives a salt, the structure may show the parent alone.", "data": [{"smiles": "CCOC(=O)c1cc(=O)c2c(OCC(COc3cccc4oc(C(=O)OCC)cc(=O)c34)OC(=O)CNC(=O)[C@H](C)N)cccc2o1", "note": "[Example 7, diethyl N-(L-alanyl)glycylcromoglycate hydrochloride]", "values": [{"measurement": "LD50", "setting": "[1]", "value": "> 1000", "unit": "mg/kg"}, {"measurement": "0-6 Hr urinary recovery", "setting": "[2]", "value": 21.4, "unit": "%"}]}, {"smiles": "CCOCCOC(=O)c1cc(=O)c2c(OCC(COc3cccc4oc(C(=O)OCCOCC)cc(=O)c34)OC(=O)[C@@H](N)CCCCN)cccc2o1", "note": "[Example 11, di(2-ethoxyethyl) L-lysylcromoglycate dihydrochloride]", "values": [{"measurement": "LD50", "setting": "[1]", "value": "> 1000", "unit": "mg/kg"}, {"measurement": "0-6 Hr urinary recovery", "setting": "[2]", "value": 25.4, "unit": "%"}]}, {"smiles": "CCOC(=O)c1cc(=O)c2c(OCC(COc3cccc4oc(C(=O)OCC)cc(=O)c34)OC(=O)[C@@H](N)CCCCN)cccc2o1", "note": "[Example 1, diethyl L-lysylcromoglycate dihydrochloride]", "values": [{"measurement": "LD50", "setting": "[1]", "value": "> 1000", "unit": "mg/kg"}, {"measurement": "0-6 Hr urinary recovery", "setting": "[2]", "value": 32.6, "unit": "%"}]}, {"smiles": "O=C(O)c1cc(=O)c2c(OCC(O)COc3cccc4oc(C(=O)O)cc(=O)c34)cccc2o1", "note": "[Cromoglycic acid]", "values": [{"measurement": "dose excreted at 6 h", "setting": "in vivo", "value": 3.5, "unit": "%"}, {"measurement": "absorption in the digestive tract", "setting": "[3]", "value": "cannot be absorbed in the digestive tract"}]}, {"smiles": "CCOC(=O)c1cc(=O)c2c(OCC(COc3cccc4oc(C(=O)OCC)cc(=O)c34)OC(=O)[C@H](C)N)cccc2o1", "note": "[Example 4, diethyl L-alanylcromoglycate hydrochloride]", "values": [{"measurement": "LD50", "setting": "[1]", "value": "> 1000", "unit": "mg/kg"}, {"measurement": "0-6 Hr urinary recovery", "setting": "[2]", "value": 20.2, "unit": "%"}]}, {"smiles": "CCOCCOC(=O)c1cc(=O)c2c(OCC(COc3cccc4oc(C(=O)OCCOCC)cc(=O)c34)OC(=O)[C@H](C)N)cccc2o1", "note": "[Example 12, di(2-ethoxyethyl) L-alanylcromoglycate hydrochloride]", "values": [{"measurement": "LD50", "setting": "[1]", "value": "> 1000", "unit": "mg/kg"}, {"measurement": "0-6 Hr urinary recovery", "setting": "[2]", "value": 21.8, "unit": "%"}]}]}
